Measured values reported in publication PMC11266321 (EJNMMI Radiopharmacy and Chemistry, 2024).
Values joined by “and” are separate entries in the source; they are usually repeats but may differ in a detail not shown here. Identical values can stand only once.

What was measured:
[1] = Tissue distribution of radioactivity in mice; type: in vivo, mouse; details: mean ± SD n = 4
Experimental: (§1) [^11C]MMP (8.1 MBq/17 pmol) was injected intravenously into 8-week-old male ddY mice (37.8–42.4 g). The tracer-injected mice were housed individually in filter-paper-lined animal-rearing cages until the time of euthanasia. Mice were euthanized by cervical dislocation at 1, 5, 15, 30, 60, and 90 min after injection (n = 4 each). Blood was collected by heart puncture, and the tissues were harvested. Radioactivity excreted into urine was recovered from the cage floor and by cystocentesis from the urinary bladder. The samples were measured for ^11C radioactivity with an auto-gamma counter (Hidex-AMG, Turku, Finland) and weighed. Tissue uptake of ^11C was expressed as the percentage of injected dose per organ (%ID/organ) or the percentage of injected dose per gram of tissue (%ID/g). The tissue distribution data were extrapolated to an adult male phantom using the %kg/g method (Blau [1975]). The radiation absorbed dose and effective dose for human adults were estimated using OLINDA/EXM software (Vanderbilt University, Nashville, TN) (Stabin et al. [2005]). Effective dose was estimated using the risk-weighting factor of ICRP Publication 103 (ICRP [2007]).

[2] = Radiation dosimetry for human adults estimated from mouse data (OLINDA/EXM)
Experimental: as §1

[3] = pH 5.36
[4] = human adults, estimated from mouse data

CC(C)NC(C)Cc1ccc([11CH3])cc1 (centres unmarked) [[^11C]MMP, N-isopropyl-4-[^11C]methylamphetamine]
Injected dose/organ (%), Bladder ([1]; 30 min after i.v. injection): 2.40 ± 1.59 %ID/organ | Injected dose/organ (%), Bladder + urine ([1]; 30 min after i.v. injection): 32.99 ± 3.90 %ID/organ | Injected dose/organ (%), Brain ([1]; 30 min after i.v. injection): 1.09 ± 0.11 %ID/organ | Injected dose/organ (%), Heart ([1]; 30 min after i.v. injection): 0.21 ± 0.01 %ID/organ | Injected dose/organ (%), Kidney ([1]; 30 min after i.v. injection): 4.79 ± 1.06 %ID/organ | Injected dose/organ (%), Large intestine ([1]; 30 min after i.v. injection): 1.59 ± 0.61 %ID/organ | Injected dose/organ (%), Liver ([1]; 30 min after i.v. injection): 12.97 ± 1.05 %ID/organ | Injected dose/organ (%), Lung ([1]; 30 min after i.v. injection): 0.79 ± 0.09 %ID/organ | Injected dose/organ (%), Pancreas ([1]; 30 min after i.v. injection): 0.83 ± 0.03 %ID/organ | Injected dose/organ (%), Small intestine ([1]; 30 min after i.v. injection): 3.66 ± 0.59 %ID/organ | Injected dose/organ (%), Spleen ([1]; 30 min after i.v. injection): 0.35 ± 0.07 %ID/organ | Injected dose/organ (%), Stomach ([1]; 30 min after i.v. injection): 1.76 ± 0.50 %ID/organ | Injected dose/organ (%), Testis ([1]; 30 min after i.v. injection): 0.52 ± 0.11 %ID/organ | Injected dose/organ (%), Urine ([1]; 30 min after i.v. injection): 30.59 ± 5.33 %ID/organ | Injected dose/g tissue (%), Blood ([1]; 60 min after i.v. injection): 0.56 ± 0.23 %ID/g | Injected dose/g tissue (%), Bone ([1]; 60 min after i.v. injection): 0.49 ± 0.04 %ID/g | Injected dose/g tissue (%), Brain ([1]; 60 min after i.v. injection): 1.01 ± 0.09 %ID/g | Injected dose/g tissue (%), Heart ([1]; 60 min after i.v. injection): 0.56 ± 0.22 %ID/g | Injected dose/g tissue (%), Kidney ([1]; 60 min after i.v. injection): 3.73 ± 3.22 %ID/g | Injected dose/g tissue (%), Large intestine ([1]; 60 min after i.v. injection): 0.61 ± 0.27 %ID/g | Injected dose/g tissue (%), Liver ([1]; 60 min after i.v. injection): 2.93 ± 0.85 %ID/g | Injected dose/g tissue (%), Lung ([1]; 60 min after i.v. injection): 1.73 ± 0.45 %ID/g | Injected dose/g tissue (%), Muscle ([1]; 60 min after i.v. injection): 0.51 ± 0.24 %ID/g | Injected dose/g tissue (%), Pancreas ([1]; 60 min after i.v. injection): 2.52 ± 0.24 %ID/g | Injected dose/g tissue (%), Small intestine ([1]; 60 min after i.v. injection): 1.88 ± 0.59 %ID/g | Injected dose/g tissue (%), Spleen ([1]; 60 min after i.v. injection): 1.47 ± 0.44 %ID/g | Injected dose/g tissue (%), Stomach ([1]; 60 min after i.v. injection): 1.27 ± 0.89 %ID/g | Injected dose/g tissue (%), Testis ([1]; 60 min after i.v. injection): 1.85 ± 0.35 %ID/g | Injected dose/organ (%), Bladder ([1]; 60 min after i.v. injection): 0.23 ± 0.12 %ID/organ | Injected dose/organ (%), Bladder + urine ([1]; 60 min after i.v. injection): 53.94 ± 7.66 %ID/organ | Injected dose/organ (%), Brain ([1]; 60 min after i.v. injection): 0.41 ± 0.06 %ID/organ | Injected dose/organ (%), Heart ([1]; 60 min after i.v. injection): 0.11 ± 0.03 %ID/organ | Injected dose/organ (%), Kidney ([1]; 60 min after i.v. injection): 2.37 ± 2.03 %ID/organ | Injected dose/organ (%), Large intestine ([1]; 60 min after i.v. injection): 0.85 ± 0.51 %ID/organ | Injected dose/organ (%), Liver ([1]; 60 min after i.v. injection): 6.29 ± 1.96 %ID/organ | Injected dose/organ (%), Lung ([1]; 60 min after i.v. injection): 0.36 ± 0.10 %ID/organ | Injected dose/organ (%), Pancreas ([1]; 60 min after i.v. injection): 0.47 ± 0.04 %ID/organ | Injected dose/organ (%), Small intestine ([1]; 60 min after i.v. injection): 3.41 ± 0.77 %ID/organ | Injected dose/organ (%), Spleen ([1]; 60 min after i.v. injection): 0.17 ± 0.02 %ID/organ | Injected dose/organ (%), Stomach ([1]; 60 min after i.v. injection): 0.82 ± 0.44 %ID/organ | Injected dose/organ (%), Testis ([1]; 60 min after i.v. injection): 0.53 ± 0.15 %ID/organ | Injected dose/organ (%), Urine ([1]; 60 min after i.v. injection): 53.71 ± 7.68 %ID/organ | Injected dose/g tissue (%), Blood ([1]; 90 min after i.v. injection): 0.23 ± 0.09 %ID/g | Injected dose/g tissue (%), Bone ([1]; 90 min after i.v. injection): 0.59 ± 0.14 %ID/g | Injected dose/g tissue (%), Brain ([1]; 90 min after i.v. injection): 0.45 ± 0.08 %ID/g | Injected dose/g tissue (%), Heart ([1]; 90 min after i.v. injection): 0.35 ± 0.14 %ID/g | Injected dose/g tissue (%), Kidney ([1]; 90 min after i.v. injection): 6.64 ± 3.76 %ID/g | Injected dose/g tissue (%), Large intestine ([1]; 90 min after i.v. injection): 0.61 ± 0.16 %ID/g | Injected dose/g tissue (%), Liver ([1]; 90 min after i.v. injection): 1.94 ± 0.88 %ID/g | Injected dose/g tissue (%), Lung ([1]; 90 min after i.v. injection): 1.03 ± 0.13 %ID/g | Injected dose/g tissue (%), Muscle ([1]; 90 min after i.v. injection): 0.42 ± 0.18 %ID/g | Injected dose/g tissue (%), Pancreas ([1]; 90 min after i.v. injection): 1.25 ± 0.34 %ID/g | Injected dose/g tissue (%), Small intestine ([1]; 90 min after i.v. injection): 1.34 ± 1.24 %ID/g | Injected dose/g tissue (%), Spleen ([1]; 90 min after i.v. injection): 0.56 ± 0.17 %ID/g | Injected dose/g tissue (%), Stomach ([1]; 90 min after i.v. injection): 1.52 ± 1.28 %ID/g | Injected dose/g tissue (%), Testis ([1]; 90 min after i.v. injection): 1.47 ± 0.44 %ID/g | Injected dose/organ (%), Bladder ([1]; 90 min after i.v. injection): 2.32 ± 1.75 %ID/organ | Injected dose/organ (%), Bladder + urine ([1]; 90 min after i.v. injection): 58 %ID/organ and 57.89 ± 3.18 %ID/organ | Injected dose/organ (%), Brain ([1]; 90 min after i.v. injection): 0.21 ± 0.07 %ID/organ | Injected dose/organ (%), Heart ([1]; 90 min after i.v. injection): 0.07 ± 0.03 %ID/organ | Injected dose/organ (%), Kidney ([1]; 90 min after i.v. injection): 4.56 ± 2.94 %ID/organ | Injected dose/organ (%), Large intestine ([1]; 90 min after i.v. injection): 0.77 ± 0.16 %ID/organ | Injected dose/organ (%), Liver ([1]; 90 min after i.v. injection): 4.85 ± 2.18 %ID/organ | Injected dose/organ (%), Lung ([1]; 90 min after i.v. injection): 0.23 ± 0.03 %ID/organ | Injected dose/organ (%), Pancreas ([1]; 90 min after i.v. injection): 0.25 ± 0.05 %ID/organ | Injected dose/organ (%), Small intestine ([1]; 90 min after i.v. injection): 2.47 ± 2.43 %ID/organ | Injected dose/organ (%), Spleen ([1]; 90 min after i.v. injection): 0.08 ± 0.03 %ID/organ | Injected dose/organ (%), Stomach ([1]; 90 min after i.v. injection): 0.84 ± 0.56 %ID/organ | Injected dose/organ (%), Testis ([1]; 90 min after i.v. injection): 0.49 ± 0.17 %ID/organ | Injected dose/organ (%), Urine ([1]; 90 min after i.v. injection): 55.57 ± 3.04 %ID/organ | Effective dose ([2]; administration of 740 MBq): 4.0 mSv | highest absorbed dose, urinary bladder wall ([2]; administration of 740 MBq): 42.6 mGy | Absorbed dose, Adrenal [2, 4]: 2.21 µGy/MBq | Absorbed dose, Brain [2, 4]: 3.67 µGy/MBq | Absorbed dose, Breast [2, 4]: 1.34 µGy/MBq | Absorbed dose, Gallbladder wall [2, 4]: 2.43 µGy/MBq | Absorbed dose, Heart wall [2, 4]: 3.02 µGy/MBq | Absorbed dose, Kidney [2, 4]: 8.6 µGy/MBq and 8.56 µGy/MBq | Absorbed dose, Liver [2, 4]: 4.78 µGy/MBq | Absorbed dose, Lower large intestine wall [2, 4]: 4.03 µGy/MBq | Absorbed dose, Lungs [2, 4]: 7.3 µGy/MBq and 7.29 µGy/MBq | Absorbed dose, Muscle [2, 4]: 2.70 µGy/MBq | Absorbed dose, Osteogenic cells [2, 4]: 2.41 µGy/MBq | Absorbed dose, Ovaries [2, 4]: 3.09 µGy/MBq | Absorbed dose, Pancreas [2, 4]: 5.5 µGy/MBq and 5.53 µGy/MBq | Absorbed dose, Red marrow [2, 4]: 2.12 µGy/MBq | Absorbed dose, Skin [2, 4]: 1.29 µGy/MBq | Absorbed dose, Small intestine [2, 4]: 4.51 µGy/MBq | Absorbed dose, Spleen [2, 4]: 3.57 µGy/MBq | Absorbed dose, Stomach wall [2, 4]: 3.59 µGy/MBq | Absorbed dose, Testes [2, 4]: 2.66 µGy/MBq | Absorbed dose, Thymus [2, 4]: 1.70 µGy/MBq | Absorbed dose, Thyroid [2, 4]: 1.62 µGy/MBq | Absorbed dose, Total body [2, 4]: 2.65 µGy/MBq | Absorbed dose, Upper large intestine wall [2, 4]: 3.32 µGy/MBq | Absorbed dose, Urinary bladder wall [2, 4]: 57.6 µGy/MBq | Absorbed dose, Uterus [2, 4]: 4.51 µGy/MBq | Radiochemical purity (stability test), mean of three runs [3]: 99.7 ± 0.2%
